Test results from ChEMBL document CHEMBL1201862, “PubChem BioAssay data set” (2004).
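Growth conditions: 96-well plates. Treatment: test compound, 48 hours, 5 concentrations. Analysis: linear interpolation between bracketing concentrations; unreached endpoints set to highest concentration. The concentration for 50% growth inhibition is given as GI50.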 Activity calls are given as the source filed them. No stated cut-off is given here; in the data, active = GI50 up to about 1.1 µM and inactive = higher.

Assays:
Test in all cases: NCI tumour cell line growth inhibition, 48 h
[1] = tested on: A498
[2] = tested on: A549
[3] = tested on: BT-549
[4] = tested on: COLO 205
[5] = tested on: HOP-92
[6] = tested on: IGROV-1
[7] = tested on: LOX IMVI
[8] = tested on: MOLT-4
[9] = tested on: NCI-H460
[10] = tested on: NCI/ADR-RES
[11] = tested on: OVCAR-3
[12] = tested on: OVCAR-4
[13] = tested on: SK-MEL-28
[14] = tested on: SK-MEL-2
[15] = tested on: SK-MEL-5
[16] = tested on: SNB-75
[17] = tested on: T47D
[18] = tested on: UACC-257
[19] = tested on: HL-60
[20] = tested on: HT-29

SMILES | GI50 [1] | GI50 [2] | GI50 [3] | GI50 [4] | GI50 [5] | GI50 [6] | GI50 [7] | GI50 [8] | GI50 [9] | GI50 [10] | GI50 [11] | GI50 [12] | GI50 [13] | GI50 [14] | GI50 [15] | GI50 [16] | GI50 [17] | GI50 [18] | GI50 [19] | GI50 [20]
CCCCC(=O)Nc1ccc2cc(C(=O)OC)c(=O)[nH]c2n1 | > 100 µM (inactive) | > 100 µM (inactive) | > 100 µM (inactive) | > 100 µM (inactive) | > 100 µM (inactive) | > 100 µM (inactive) | > 100 µM (inactive) | > 100 µM (inactive) | > 100 µM (inactive) | > 100 µM (inactive) | > 100 µM (inactive) | > 100 µM (inactive) | > 100 µM (inactive) | > 100 µM (inactive) | > 100 µM (inactive) | > 100 µM (inactive) | > 100 µM (inactive) | > 100 µM (inactive) |  | 
CC1=NN(C(=O)CC(=O)Nc2cccc(C)c2)C(=O)C1/N=N/c1ccc(C(=O)O)cc1 (stereo unspecified) | > 100 µM (inactive) | > 100 µM (inactive) | > 100 µM (inactive) | > 100 µM (inactive) | 34.9 µM (inactive) | > 100 µM (inactive) | > 100 µM (inactive) |  |  | > 100 µM (inactive) | > 100 µM (inactive) | > 100 µM (inactive) | > 100 µM (inactive) | > 100 µM (inactive) | > 100 µM (inactive) | 69.2 µM (inactive) | > 100 µM (inactive) | > 100 µM (inactive) | > 100 µM (inactive) | > 100 µM (inactive)
CC[C@@]1(O)C(=O)OCc2c1cc1n(c2=O)Cc2c-1nc1ccccc1c2/C=N\NC(=O)C(N)CO (stereo partly specified) | 1.65 µM (inactive) | 1.05 µM (active) | 2.56 µM (inactive) | 32.1 µM (inactive) | 1.87 µM (inactive) | 7.59 µM (inactive) | 0.329 µM (active) | 0.0466 µM (active) | 0.184 µM (active) | 0.785 µM (active) | 16.2 µM (inactive) | 14.2 µM (inactive) | 19.2 µM (inactive) | 32.4 µM (inactive) | 0.684 µM (active) |  | 0.239 µM (active) | 3.59 µM (inactive) | 0.335 µM (active) | 2.86 µM (inactive)
CC(=O)NCCC1CNc2ccccc21 (stereo unspecified) | > 100 µM (inactive) | > 100 µM (inactive) | > 100 µM (inactive) | > 100 µM (inactive) | > 100 µM (inactive) | > 100 µM (inactive) | > 100 µM (inactive) | > 100 µM (inactive) | > 100 µM (inactive) | > 100 µM (inactive) | > 100 µM (inactive) | > 100 µM (inactive) | > 100 µM (inactive) | > 100 µM (inactive) | > 100 µM (inactive) |  | > 100 µM (inactive) | > 100 µM (inactive) | > 100 µM (inactive) | > 100 µM (inactive)
CCCCCc1c(CCCC)c(O)nc2nc(NC(=O)CCCC)ccc12 | > 100 µM (inactive) | > 100 µM (inactive) | > 100 µM (inactive) | > 100 µM (inactive) | > 100 µM (inactive) | > 100 µM (inactive) | > 100 µM (inactive) | > 100 µM (inactive) | > 100 µM (inactive) | > 100 µM (inactive) | > 100 µM (inactive) | > 100 µM (inactive) | > 100 µM (inactive) | > 100 µM (inactive) | > 100 µM (inactive) | > 100 µM (inactive) | > 100 µM (inactive) | > 100 µM (inactive) |  | 
CCOC(=O)C1=CNC(C(=O)OCC)C1c1cccn1-c1ccccc1 (stereo unspecified) | 37 µM (inactive) | 33.9 µM (inactive) | 36.7 µM (inactive) | 23.5 µM (inactive) | 16.3 µM (inactive) | 33 µM (inactive) | 16.6 µM (inactive) | 19.8 µM (inactive) | 29.4 µM (inactive) | 22.8 µM (inactive) | 26.1 µM (inactive) | 46.6 µM (inactive) | 28.1 µM (inactive) | 12.1 µM (inactive) | 17.5 µM (inactive) | 21.4 µM (inactive) | 25.8 µM (inactive) | 35.7 µM (inactive) |  | 23 µM (inactive)
